Like-named read-outs stand apart in the source and are kept apart here. No end group written: not given here.
Assays:
Assay in all cases: biochemical
[1] = biological target: DR7 (DRB1*0701) (Homo sapiens, UniProt P01903+P01911, A100R/A102G/A103Q/D57E/D86V/E43K/F76Y/K127E/L162R/M171V/P40G/Q125H/Q99D/R33Q/R42Y/R54Q/S133A/S66F/T210M/V115G/Y107V/Y59L/Y89S); type: binding
[2] = biological target: DRB1*1501 (Homo sapiens, UniProt P01903+P01911); type: binding
[3] = biological target: DRB4*0101 (Homo sapiens, UniProt P01903+P13762, G164S); type: binding
[4] = biological target: DR4w4 (DRB1*0401) (Homo sapiens, UniProt P01903+P01911, A100K/A169T/F76Y/I96L/K127E/L162R/M171V/N62H/P40V/Q125Y/R42H/S133A/S149N/S66Y/V115G/V209L/W38E); type: binding
[5] = biological target: DR1 (DRB1*0101) (Homo sapiens, UniProt P01903+P01911, A100R/D57E/F55L/F60I/F76Y/I96L/L162R/M171V/P40L/Q125E/R42F/V115G/Y59C); type: binding
[6] = biological target: DRB1*0901 (Homo sapiens, UniProt P01903+P01911, A100R/A103E/D57H/D86V/F55Y/F60I/F76Y/I96F/K127E/L162R/M171V/P40D/Q125H/Q99R/R33Q/R42F/S133A/S66N/T210M/V115G/W38K/Y107V/Y59G/Y89S); type: binding
[7] = biological target: DRB1*1302 (Homo sapiens, UniProt P01903+P01911, A100E/A169T/K41T/L162R/M171V/P40S/Q125H/Q178H/Q39Y/Q99D/R42S/S66N/T262R/V115G/W38E/Y61H); type: binding
[8] = biological target: DRB5*0101 (Homo sapiens, UniProt P01903+Q30154); conditions: Binding affinity DRB5 *0101
[9] = biological target: DRB1*0802 (Homo sapiens, UniProt P01903+P01911, A100R/A103L/A169T/F76Y/H45Y/I96F/K41T/L162R/M171V/P40S/Q125H/Q178H/Q39Y/Q99D/R218S/R42G/S66Y/V115G/W38E); type: binding
[10] = biological target: DRB1*1101 (Homo sapiens, UniProt P01903+P01911, A100R/A169T/A87E/I96F/K41T/L162R/M171V/P40S/Q125H/Q178H/Q39Y/Q99D/R42S/S66Y/T262R/V115G/W38E); conditions: Binding affinity DRB1 *1101
[11] = biological target: A*6802 (Homo sapiens, UniProt P04439, A269V/D140Y/D185E/E176V/E277Q/E87N/F33Y/G231S/I121R/I166T/I218V/L180W/L300P/L318F/N151K/P208A/P217A/Q86R/R138H/R169H/S129P/T345S/V36M); type: binding

Sequence of DRB1*1101 (P01903 26-254 limits assumed, other chains not shown): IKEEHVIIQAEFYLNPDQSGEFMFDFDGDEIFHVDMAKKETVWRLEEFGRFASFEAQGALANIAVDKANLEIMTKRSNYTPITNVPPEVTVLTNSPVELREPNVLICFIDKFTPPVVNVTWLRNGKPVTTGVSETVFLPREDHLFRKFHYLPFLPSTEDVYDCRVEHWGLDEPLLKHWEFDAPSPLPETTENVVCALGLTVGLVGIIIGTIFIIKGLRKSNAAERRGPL
Sequence of DRB1*1302 (P01903 26-254 limits assumed, other chains not shown): as above

Row | Compound | IC50 [3] [nM] | IC50 [7] [nM] | IC50 [8] [nM] | IC50 [9] [nM] | IC50 [4] [nM] | further results
1 | CC[C@H](C)[C@H](NC(=O)[C@@H](NC(=O)[C@H](CCSC)NC(=O)[C@H](Cc1ccc(O)cc1)NC(=O)CNC(=O)[C@@H](NC(=O)[C@H](CO)NC(=O)[C@@H](NC(=O)[C@H](CCC(N)=O)NC(=O)[C@@H](NC(=O)[C@H](CO)NC(=O)[C@H](CC(N)=O)NC(=O)[C@@H]1CCCN1C(=O)[C@@H](NC(=O)[C@@H](N)[C@@H](C)O)[C@@H](C)CC)C(C)C)[C@@H](C)CC)C(C)C)[C@@H](C)O)C(=O)O [Peptide 1601.42] | 16 |  |  |  |  | IC50 [1]: 9 nM; IC50 [2]: 10 nM
2 | 702.17 (AYAAAKA; also: non-natural residues (20)) [Peptide 702.17] |  |  |  |  |  | IC50 ([4]; read-out: DRB1*0401): 250 nM; IC50 ([1]; read-out: DRB1*0701): 8330 nM
3 | NKALQAIELQLTLET [Peptide 89.0151] | 32 | 1800 | 462 |  |  | IC50 [5]: 80 nM; IC50 [1]: 1200 nM; IC50 [6]: 16800 nM; IC50 [2]: > 20000 nM
4 | GVILYSDPADYFAPG [Peptide 68.0170] |  |  |  | > 20000 |  | IC50 [10]: > 20000 nM
5 | Ac-AAAKAAAAAAFAA [Peptide 730.09] |  |  |  |  | 421 | 
6 | ACSWGMVVLLLVRYK [Peptide 89.0004] | 1520 |  | > 20000 | 4770 | 701 | IC50 [5]: 1020 nM; IC50 [6]: 2000 nM; IC50 [2]: 870 nM
7 | LVQLKCPPLLITSNI [Peptide 89.0021] | 234 |  | > 20000 | > 20000 | 4290 | IC50 [5]: 72 nM; IC50 [6]: > 20000 nM; IC50 [10]: > 20000 nM
8 | LLLPPLERLTL [Peptide 73.0157] |  |  |  |  |  | IC50 [11]: > 20000 nM
9 | GHQVVPPMAVSKAKA [Peptide 90.0011] | 66 | 2580 | 5320 | 1630 | 451 | IC50 [1]: 6240 nM; IC50 [10]: 2060 nM
10 | CC[C@H](C)[C@H](NC(=O)CNC(=O)[C@H](CCCNC(=N)N)NC(=O)[C@H](CCCNC(=N)N)NC(=O)[C@H](Cc1ccc(O)cc1)NC(=O)[C@H](C)NC(=O)[C@H](Cc1ccc(O)cc1)NC(=O)[C@@H](N)CCC(=O)O)C(=O)N[C@@H](C)C(=O)N[C@@H](CCC(=O)O)C(=O)N[C@@H](C)C(=O)N[C@H](C(=O)NCC(=O)N[C@@H](CC(C)C)C(=O)N1CCC[C@H]1C(=O)O)C(C)C [Peptide 68.0100] |  |  |  |  |  | IC50 [2]: > 20000 nM
11 | Ac-NPTKHKWEAAHVAEQLAA [Peptide 724.01] |  |  |  | 25000 |  | 
12 | LIRLENAILFTAREH [Peptide 90.0002] | 339 | 51 | 4270 | 11700 | 1220 | IC50 [5]: 23 nM; IC50 [2]: 2070 nM; IC50 [10]: 5690 nM
13 | 787.39 (AAIGGIFIFKKDA; also: non-natural residue (43)) [Peptide 787.39] |  |  |  |  |  | IC50 ([4]; read-out: DRB1*0401): 800 nM
14 | FVNQHLCGSHLVEAL [Peptide 9000.0047] |  |  |  |  |  | IC50 [1]: 6790 nM
15 | EIYIIEETTCTLVAG [Peptide 90.0251] | 1100 | 1110 |  |  |  | 
16 | 730.15 (AAKAAAAAAAAA; also: non-natural residue (10)) [Peptide 730.15] |  |  |  |  |  | IC50 ([4]; read-out: DRB1*0401): > 889 nM
17 | SWGMVMLMLVRFKCA [Peptide 89.0044] | 1440 | 975 | 5060 | 9990 | 3380 | IC50 [5]: 4890 nM; IC50 [1]: > 20000 nM; IC50 [6]: > 20000 nM
18 | CC[C@H](C)[C@H](NC(=O)[C@H](CCC(N)=O)NC(=O)[C@@H](NC(=O)[C@H](CO)NC(=O)[C@H](CC(=O)O)NC(=O)[C@@H]1CCCN1C(=O)[C@@H](NC(=O)[C@H](C)NC(=O)[C@@H](NC(=O)[C@@H](NC(=O)[C@H](CC(N)=O)NC(=O)[C@H](CC(C)C)NC(=O)[C@@H](N)Cc1ccccc1)[C@@H](C)O)C(C)C)[C@@H](C)CC)C(C)C)C(=O)N[C@@H](CC(C)C)C(=O)N[C@H](C(=O)O)C(C)C [Peptide 1601.20] |  | 90 | > 20000 | > 20000 |  | IC50 [10]: > 20000 nM
